In series [1] the target is angiotensin I-converting enzyme (ACE) (Homo sapiens, UniProt P12821). The series can be described thus: ACE inhibitory activity assay (HHL substrate, hippuric acid absorbance at 228 nm). It is filed as biochemical. To be noted: for inhibition at 1000 µg/mL: synthetic peptides at 1 mg/ml. As for the experimental part:
ACE inhibitory activity assay was carried out according to the methods of Cushman and Cheung (1971) and Wu et al. (2002) with some modifications. A reaction mixture containing 50 µl of hydrolysate or peptides, 150 µl of 8.3 mM Hippuryl-L-histidyl-L-leucine (HHL), and 50 µl of ACE (25 mU/ml) was incubated at 37° C. for 1 h. Subsequently, 250 µl of 1 M HCl was added to terminate the reaction. The released hippuric acid (HA) was extracted by adding 2.5 ml ethyl acetate, and the mixture was mixed with a vortex for 1 min and left at room temperature for 1 h. Then, 2 ml of the upper layer was transferred into beaker and dried at 80° C. to remove ethyl acetate. Finally, 1 ml of deionized water was added to dissolve the HA. Absorbance was measured at 228 nm. The percentage of ACE inhibition was calculated as follows: […]
where A is the absorbance at 228 nm of a reaction containing ACE without hydrolysate; B is the absorbance at 228 nm of a reaction containing ACE previously inactivated by adding HCl in the absence of hydrolysate; C is the absorbance at 228 nm of a reaction in the presence of ACE and hydrolysate; and D is the absorbance at 228 nm of a reaction containing ACE previously inactivated by adding HCl in the presence of hydrolysate. The IC50 was defined as the concentration of inhibitor required to inhibit 50% of the ACE activity. Specific inhibitory activity was calculated as ACE inhibition (%) divided by total peptide content (mg).

A further series addresses ACE (Homo sapiens, UniProt P12821). The following applies: Wu et al. (2008); Balti et al. (2010); read-out: IC50 (ACE inhibition); cited from earlier work.
Series [2] deals with GI enzymes (pepsin and pancreatin). The series can be described thus: In vitro gastrointestinal (GI) digestion of synthetic peptides, with ACE inhibitory activity and α-amino group content before and after. Format: in vitro ADME. To be noted: pepsin pH 2.0, 37° C., 1 h, then pancreatin pH 7.5, 37° C., 2 h (FIG. 6). As for the experimental part: It is necessary for ACE inhibitory peptides to retain its activity in GI tract so that it can be absorbed into the bloodstream, where the peptide inhibitors can show their hypotensive effect. In vitro gastrointestinal digestion provides an easy process to imitate antihypertensive activity of peptides under oral administration. […] In vitro GI digestion was simulated according to the method of Zhu et al. (2008) with some modifications. One milligram of each sample was dissolved in 0.5 ml of 0.1 M KCl-HCl, and the pH was adjusted to 2.0 with 6 M HCl. Pepsin (1% enzyme/substrate, w/w) was added, and the mixture was incubated in a shaking water bath at 37° C. for 1 h, and the pH was then adjusted to pH 7.5. […] ACE inhibitory activity and α-amino groups content of the peptides before and after in vitro GI digestion were measured. […]
ACE inhibitory activity assay was carried out according to the methods of Cushman and Cheung (1971) and Wu et al. (2002) with some modifications. […] Absorbance was measured at 228 nm. The percentage of ACE inhibition was calculated as follows: […]
Content of α-amino groups was performed according to Adler-Nissen (1979). […] The mixture was left at room temperature for 30 min before an absorbance at 420 nm was monitored. […] The content of α-amino groups was expressed as leucine equivalents.

[3] abbreviates: synthesized in silico GI digestion products of VR9.

Marks after values point to notes of the source that are not given here. No end group written: not given here.

Sequence of angiotensin I-converting enzyme (ACE) (P12821 30-1306, species assumed): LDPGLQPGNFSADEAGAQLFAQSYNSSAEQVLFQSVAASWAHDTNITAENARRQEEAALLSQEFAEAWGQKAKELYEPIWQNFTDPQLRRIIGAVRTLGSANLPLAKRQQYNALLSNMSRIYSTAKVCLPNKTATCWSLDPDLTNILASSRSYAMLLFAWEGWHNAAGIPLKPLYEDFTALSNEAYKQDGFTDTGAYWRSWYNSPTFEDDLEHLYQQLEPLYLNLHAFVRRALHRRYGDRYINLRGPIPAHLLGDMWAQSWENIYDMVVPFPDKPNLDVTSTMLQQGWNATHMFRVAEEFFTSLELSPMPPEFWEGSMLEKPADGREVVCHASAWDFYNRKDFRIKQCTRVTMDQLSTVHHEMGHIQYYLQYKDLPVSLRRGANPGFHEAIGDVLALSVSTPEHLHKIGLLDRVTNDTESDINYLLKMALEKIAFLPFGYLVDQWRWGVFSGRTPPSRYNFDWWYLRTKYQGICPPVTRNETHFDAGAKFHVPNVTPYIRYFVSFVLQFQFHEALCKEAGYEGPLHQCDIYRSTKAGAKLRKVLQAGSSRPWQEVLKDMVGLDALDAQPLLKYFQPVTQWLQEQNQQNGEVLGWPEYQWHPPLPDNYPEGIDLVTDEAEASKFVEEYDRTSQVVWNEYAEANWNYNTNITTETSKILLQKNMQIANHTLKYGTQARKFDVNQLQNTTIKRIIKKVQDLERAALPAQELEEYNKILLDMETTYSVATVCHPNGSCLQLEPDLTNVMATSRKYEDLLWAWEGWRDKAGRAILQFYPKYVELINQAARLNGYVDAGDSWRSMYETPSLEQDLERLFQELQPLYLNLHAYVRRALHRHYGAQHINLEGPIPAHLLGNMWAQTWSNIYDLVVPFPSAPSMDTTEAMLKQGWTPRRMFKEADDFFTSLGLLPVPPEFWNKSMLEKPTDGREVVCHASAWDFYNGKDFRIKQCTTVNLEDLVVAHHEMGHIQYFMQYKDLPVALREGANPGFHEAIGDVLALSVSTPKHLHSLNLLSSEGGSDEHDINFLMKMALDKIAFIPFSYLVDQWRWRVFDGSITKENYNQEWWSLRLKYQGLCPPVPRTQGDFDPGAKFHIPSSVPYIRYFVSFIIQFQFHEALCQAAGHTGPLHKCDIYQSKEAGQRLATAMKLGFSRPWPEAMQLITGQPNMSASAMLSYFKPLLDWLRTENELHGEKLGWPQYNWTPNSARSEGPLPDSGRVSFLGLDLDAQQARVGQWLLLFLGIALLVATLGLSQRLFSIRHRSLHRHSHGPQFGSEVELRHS
Sequence of ACE (P12821 30-1306, species assumed): as above

Turning to INCR, in series [1] (1 µg/ml, synthesized in silico GI digestion products of VR9), the “ACE inhibitory activity (%) At 1 µg/ml” value was 29.10 ± 1.06^c %. In addition, the “ACE inhibitory activity (%) At 1 mg/ml” value in series [1] (setting [3]) is listed as 100.79 ± 0.71^c %.

Usually IC50 stands for the concentration needed to halve the response being measured. Regarding MAW, the IC50 at ACE was 16.3 µM.

As usually defined, the inhibition is the percentage by which the read-out fell short of the control. Consider NLLPHR [NLLPHR], for which, in series [1], the IC50 is 1.24 µM and the inhibition at 1000 µg/mL stood at 94.9 ± 0.97%. Moreover, the “Decrease of ACE inhibitory activity after GI digestion” value in series [2] was “approximately 30%”.

With VIIF, on ACE, the IC50 is 8.7 µM.

For “VIY [in silico GI digestion product of VR9]”, the “ACE inhibitory activity (%) At 1 mg/ml” value in series [1] (setting [3]) is 18.51 ± 1.12^a %.

With VIYSRINCR [VIYSRINCR], in series [1], the IC50 is 0.24 µM and the inhibition at 1000 µg/mL was found to be 97.02 ± 0.46%. In addition, the “Decrease of ACE inhibitory activity after GI digestion” value in series [2] is listed as around 14%.

As for VSVVQYSR [VSVVQYSR], in series [1], the IC50 is 0.95 µM and the inhibition at 1000 µg/mL is 94.15 ± 0.2%.

Consider VYAP, for which the 50% inhibitory concentration (IC50) on ACE is 6.1 µM.

(Values after patent US20230365624A1, “NOVEL ANGIOTENSIN I-CONVERTING ENZYME (ACE) INHIBITORY PEPTIDES” (Thai Union Group Public Company Limited, priority 2020, published 2023).)
